The record followed here is patent US12503444B2, “Compound containing benzene ring and application thereof” (WUHAN LL SCIENCE AND TECHNOLOGY DEVELOPMENT CO., LTD., priority 2019, dated 2025).

In one test the target is T1, hP2X4 (human purinergic P2X receptor subtype 4) (Homo sapiens, UniProt Q99571).
T1 sequence (Q99571 1-404 isoform Q99571-2): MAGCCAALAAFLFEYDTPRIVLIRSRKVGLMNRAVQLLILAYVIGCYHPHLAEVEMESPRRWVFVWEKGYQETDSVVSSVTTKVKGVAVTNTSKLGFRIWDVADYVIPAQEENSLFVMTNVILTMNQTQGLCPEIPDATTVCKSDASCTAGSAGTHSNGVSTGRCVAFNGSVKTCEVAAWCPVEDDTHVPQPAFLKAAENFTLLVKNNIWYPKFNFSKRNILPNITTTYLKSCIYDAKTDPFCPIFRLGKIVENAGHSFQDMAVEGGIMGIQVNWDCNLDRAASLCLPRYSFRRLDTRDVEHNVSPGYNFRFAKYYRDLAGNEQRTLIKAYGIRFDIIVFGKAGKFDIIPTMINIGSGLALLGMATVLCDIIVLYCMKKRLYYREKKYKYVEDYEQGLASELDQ
Nature of the test: FLIPR assay of intracellular calcium increase induced by activation of hP2X4 expressed in HEK293 cells (agonist BZ-ATP 2.5 μM). In kind it is cell-based. The note with it: HEK293 cells stably expressing hP2X4, FLIPR, class symbols, read-out: P2X4 IC50. As to the method: The antagonist property of the compounds disclosed herein was determined using the FLIPR (fluorescence imaging plate reader) method, wherein the compounds are inhibitors for the intracellular calcium increase induced by activation of hP2X4 (human purinergic P2X receptor subtype 4, accession No. NM_001256796.2) expressed in HEK293 cells (human renal epithelial cell line, ATCC).
HEK293 cells stably expressing hP2X4 were cultured in DMEM high glucose medium containing 10% FBS (fetal bovine serum, Biosera, FB-1058/500), 1% penicillin-streptomycin (Gibco, 15140-122) and 1 mg/mL G418 (CABIOCHE, 345810) in a cell incubator (37° C., […]). Cells at 400,000 cells/mL were seeded into a 384-well plate (10,000 cells/well) 18-24 h prior to the FLIPR experiment and then incubated overnight in a cell incubator. On the day of the experiment, the medium was discarded and the cells were washed in an FLIPR buffer (0.3 mL of probenecid (Thermo, P36400), 0.6 mL of 1 M HEPES (Invitrogen, 15630080) and 29.1 mL of HBSS (Invitrogen, 14065056) per 30 mL of the buffer). Each well was added with 20 μL of 0.5× Calcium 6 fluorescent dye (Molecular Devices, R8190) and then the cells were subjected to dye-loading incubation at 37° C. for 1.5 h. Each well was added with 10 μL of respective test compound (dissolved in DMSO at a concentration of 10 mM and serially diluted with buffer) or vehicle and the mixture was equilibrated for 30 min at room temperature. The cell plate was then placed in the FLIPR for baseline fluorescence measurements (excitation at 485 nm and emission at 525-535 nm). An agonist (BZ-ATP (Sigma, B6396) at a final concentration of 2.5 μM) or a vehicle (ultrapure water) was then added at 10 μL/well, fluorescence values were measured for 2 min at 1-second intervals, and finally the output fluorescence counts were analyzed.
For orientation: A change in cytosolic calcium serves as a functional read-out for many receptors and channels.
With `Cc1ccc(Cn2cc3c(S(N)(=O)=O)cc(NC(=O)Cc4ccccc4Cl)cc3n2)cc1` [Compound 92, 2-(2-chlorophenyl)-N-(2-(4-methylbenzyl)-4-sulfamoyl-2H-indazol-6-yl)acetamide], the IC50 – broadly, the midpoint of a concentration-inhibition curve – was at most 10 nM.

In the case of `Cc1ccc(Cn2ncc3c(S(N)(=O)=O)cc(NC(=O)Cc4ccccc4Cl)cc32)cc1` [Compound 92A, 2-(2-chlorophenyl)-N-(1-(4-methylbenzyl)-4-sulfamoyl-1H-indazol-6-yl)acetamide], the IC50 is at most 10 nM.

Consider `COc1ccccc1CC(=O)Nc1cc(S(C)(=N)=O)c2cn(Cc3ccc(F)cc3)nc2c1` (stereo not drawn) [Compound 140, N-(2-(4-fluorophenylmethyl)-4-(S-methylsulphonimidoyl)-2H-indazol-6-y)-2-(2-methoxyphenyl)acetamide], for which the IC50 lay within 200 to 5000 nM.

In the case of `NS(=O)(=O)c1cc(NC(=O)Cc2ccccc2Cl)cc2cnn(C(F)F)c12` [Compound 50, 2-(2-chlorophenyl)-N-(1-(difluoromethyl)-7-sulfamoyl-1H-indazol-5-yl)acetamide], the IC50 lay in the range of 50 to 200 nM.

`C[S@](=N)(=O)c1cc(NC(=O)Cc2ccccc2Cl)cc2nn(Cc3ccc(F)cc3)cc12` [Compound 138, (S)-2-(2-chlorophenyl)-N-(2-(4-fluorophenylmethyl)-4-(S-methylsulfonimidoyl)-2H-indazol-6-yl)acetamide]: the 50% inhibitory concentration (IC50) fell in the range of 200 to 5000 nM.

On to `COc1ccccc1Cn1ncc2c(S(N)(=O)=O)cc(NC(=O)Cc3ccccc3Cl)cc21` [Compound 37-B, 2-(2-chlorophenyl)-N-(1-(2-methoxybenzyl)-4-sulfamoyl-1H-indazol-6-yl)acetamide], for which the IC50 was in the range of 10 to 50 nM.

With `NS(=O)(=O)c1cc(NC(=O)Cc2ccccc2Cl)cc2c1cnn2CC1CCCC1` [Compound 31-B, 2-(2-chlorophenyl)-N-(1-(cyclopentylmethyl)-4-sulfamoyl-1H-indazol-6-yl)acetamide], the IC50 is at most 10 nM.

Consider `CCn1cc2c(S(N)(=O)=O)cc(NC(=O)Cc3ccccc3Cl)cc2n1` [Compound 4-A, (4-sulfonamide-6-N-(2-chlorophenylacetyl)-2-ethyl)-indazole], for which the half-maximal inhibitory concentration (IC50) was at most 10 nM.

On to `Nc1ccc(Cn2cc3c(S(N)(=O)=O)cc(NC(=O)Cc4ccccc4Cl)cc3n2)cc1` [Compound 95, N-(2-(4-aminobenzyl)-4-sulfamoyl-2H-indazol-6-yl)-2-(2-chlorophenyl)acetamide], for which the IC50 was at most 10 nM.

Turning to `NS(=O)(=O)c1cc(NC(=O)Cc2ccccc2Cl)cc2nn(C(=O)C3CC3)cc12` [Compound 16-B, 2-(2-chlorophenyl)-N-(2-(cyclopropylcarbonyl)-4-sulfamoyl-2H-indazol-6-yl)acetamide], the IC50 is at most 10 nM.

In the case of `NS(=O)(=O)c1cc(NC(=O)Cc2ccccc2Cl)cc2nn(CCN3CCOCC3)cc12` [Compound 118, 2-(2-chlorophenyl)-N-(2-(2-morpholinoethyl)-4-sulfamoyl-2H-indazol-6-yl)acetamide], the concentration for half-maximal inhibition (IC50) was in the range of 200 to 5000 nM.

On to `NS(=O)(=O)c1cc(NC(=O)Cc2ccccc2Cl)cc2nc(C3CC3)[nH]c12` [Compound 52, 2-(2-chlorophenyl)-N-(2-cyclopropyl-7-sulfamoyl-1H-benzo[d]imidazol-5-yl)acetamide], for which the IC50 fell in the range of 200 to 5000 nM.

As to `C=CCn1cc2c(S(N)(=O)=O)cc(NC(=O)Cc3ccccc3Cl)cc2n1` [Compound 14-A], the IC50 was at most 10 nM.

Turning to `NS(=O)(=O)c1cc(NC(=O)Cc2ccccc2Cl)cc2c1cnn2CCN1CCOCC1` [Compound 118A, 2-(2-chlorophenyl)-N-(1-(2-morpholinoethyl)-4-sulfamoyl-1H-indazol-6-yl)acetamide], the IC50 fell in the range of 200 to 5000 nM.

Regarding `COc1ccc(Cn2cc3c(S(N)(=O)=O)cc(NC(=O)Cc4ccccc4Cl)cc3n2)cn1` [Compound 94], the IC50 was at most 10 nM.

Consider `NS(=O)(=O)c1cc(NC(=O)Cc2ccccc2Cl)cc2nn(CCOC3CC3)cc12` [Compound 28, 2-(2-chlorophenyl)-N-(2-(2-cyclopropyloxyethyl)-4-sulfamoyl-2H-indazol-6-yl)acetamide], for which the IC50 fell in the range of 10 to 50 nM.

With `CN(C)c1cccc(Cn2cc3c(S(N)(=O)=O)cc(NC(=O)Cc4ccccc4Cl)cc3n2)c1` [Compound 38, 2-(2-chlorophenyl)-N-(2-(3-(dimethylamino)benzyl)-4-sulfamoyl-2H-indazol-6-yl)acetamide], the IC50 lay within 10 to 50 nM.

In the case of `NS(=O)(=O)c1cc(NC(=O)Cc2ccccc2Cl)cc2c1cnn2CC1CC1` [Compound 15-B, 2-(2-chlorophenyl)-N-(1-(cyclopropylmethyl)-4-sulfamoyl-1H-indazol-6-yl)acetamide], the 50% inhibitory concentration (IC50) lay in the range of 10 to 50 nM.

Regarding `COc1ccc(Cn2cc3c(S(N)(=O)=O)cc(NC(=O)Cc4ccccc4Cl)cc3n2)nc1` [Compound 93], the IC50 is at most 10 nM.

In the case of `NS(=O)(=O)c1cc(NC(=O)Cc2ccccc2Cl)cc2nn(CC3CCCCC3)cc12` [Compound 32-A, 2-(2-chlorophenyl)-N-(2-(cyclohexylmethyl)-4-sulfamoyl-2H-indazol-6-yl)acetamide], the half-inhibitory concentration (IC50) is at most 10 nM.

`CC(c1ccc(F)cc1)n1cc2c(S(N)(=O)=O)cc(NC(=O)Cc3ccccc3Cl)cc2n1` (stereo not drawn) [Compound 40-A, 2-(2-chlorophenyl)-N-(2-(1-(4-fluorophenyl)ethyl)-4-sulfamoyl-2H-indazol-6-yl)acetamide]: the half-maximal inhibitory concentration (IC50) fell in the range of 10 to 50 nM.

On to `NS(=O)(=O)c1cc(NC(=O)Cc2ccccc2Cl)cc2c1c(Cl)nn2-c1ccc(F)cc1` [Compound 75, N-(3-chloro-1-(4-fluorophenyl)-4-sulfamoyl-1H-indazol-6-yl)-2-(2-chlorophenyl)acetamide], for which the 50% inhibitory concentration (IC50) lay in the range of 200 to 5000 nM.

`CC(C)C(F)(F)n1cc2c(S(N)(=O)=O)cc(NC(=O)Cc3ccccc3Cl)cc2n1` [Compound 23, 2-(2-chlorophenyl)-N-(2-(1,1-difluoro-2-methylpropyl)-4-sulfamoyl-2H-indazol-6-yl)acetamide]: the IC50 fell in the range of 10 to 50 nM.

In the case of `NS(=O)(=O)c1cc(NC(=O)Cc2ccccc2Cl)cc2c1cnn2C(=O)C1CC1` [Compound 16-A, 2-(2-chlorophenyl)-N-(1-(cyclopropylcarbonyl)-4-sulfamoyl-1H-indazol-6-yl)acetamide], the IC50 fell in the range of 10 to 50 nM.

With `NS(=O)(=O)c1cc(NC(=O)Cc2ccccc2Cl)cc2nn(CC3CCC(O)CC3)cc12` (stereo not drawn) [Compound 108], the IC50 lay in the range of 50 to 200 nM.

For `NS(=O)(=O)c1cc(NC(=O)Cc2ccccc2Cl)cc2nn(CCF)cc12` [Compound 11, 2-(2-chlorophenyl)-N-(2-(2-fluoroethyl)-4-sulfamoyl-2H-indazol-6-yl)acetamide], the IC50 was at most 10 nM.

Regarding `CC(C)(C1CC1)n1cc2c(S(N)(=O)=O)cc(NC(=O)Cc3ccccc3Cl)cc2n1` [Compound 21, 2-(2-chlorophenyl)-N-(2-(2-cyclopropylpropan-2-yl)-4-sulfamoyl-2H-indazol-6-yl)acetamide], the IC50 was in the range of 10 to 50 nM.

As for `CS(=O)(=O)CCn1cc2c(S(N)(=O)=O)cc(NC(=O)Cc3ccccc3Cl)cc2n1` [Compound 30, 2-(2-chlorophenyl)-N-(2-(2-(methylsulfonyl)ethyl)-4-sulfamoyl-2H-indazol-6-yl)acetamide], the IC50 was 10 to 50 nM.

For `COc1ccc(Cn2cc3c(S(N)(=O)=O)cc(NC(=O)Cc4ccccc4Cl)cc3n2)cc1F` [Compound 82], the half-maximal inhibitory concentration (IC50) is at most 10 nM.

In the case of `NS(=O)(=O)c1cc(NC(=O)Cc2ccccc2Cl)cc2nc(-c3ccc(Cl)cc3)[nH]c12` [Compound 54, 2-(2-chlorophenyl)-N-(2-(4-chlorophenyl)-7-sulfamoyl-1H-benzo[d]imidazol-5-yl)acetamide], the IC50 lay in the range of 200 to 5000 nM.

Consider `COCCn1ncc2c(S(N)(=O)=O)cc(NC(=O)Cc3ccccc3Cl)cc21` [Compound 25A], for which the IC50 fell in the range of 10 to 50 nM.

Turning to `CCC1(n2cc3c(S(N)(=O)=O)cc(NC(=O)Cc4ccccc4Cl)cc3n2)CC1` [Compound 18, 2-(2-chlorophenyl)-N-(2-(1-ethylcyclopropyl)-4-sulfamoyl-2H-indazol-6-yl)acetamide], the IC50 fell in the range of 10 to 50 nM.

Staying with this test, now noted: HEK293 cells stably expressing hP2X4, FLIPR, numeric values, read-out: P2X4 IC50.
For the compound `NS(=O)(=O)c1cc(NC(=O)Cc2ccccc2Cl)cc2nn(CC3CC3)cc12` [Compound 15-A, 2-(2-chlorophenyl)-N-(2-(cyclopropylmethyl)-4-sulfonamido-2H-indazol-6-yl)acetamide], the IC50 came out at 119 nM.
